Measurements published in PubChem BioAssay AID2060510 (Molecular Pharmacology Branch, DTP, NCI, 2025).

Test system: 439559-082-T-J2-PDC spheroids viability
Assay: Anticancer human tumor 439559-082-T-J2-PDC patient-derived colon adenocarcinoma cell line growth inhibition [GQUAD]
Details: for IC50: curve of first compound; for viability, T/C: stronger effect = lower value; active = viability on the fitted dose curve at most 10% of control; inactive = the rest
Excerpt: DNA G-quadruplex Stabilizer Agents in Combinations in Complex Spheroids
A high-throughput screen of multi-cell type tumor spheroids was designed to identify active combinations of DNA G-quadruplex stabilizer agents and targeted small molecules. Complex spheroids include a stromal component modeled by human endothelial cells (HUVEC) and fibroblasts modeled by human mesenchymal stem cells (MSCs). The concentration ranges selected for each drug and investigational agent were based upon clinically achievable concentrations if the clinical Cmax of the agent was known.
Compounds. The drugs and investigational agents: pidnarulex (CX-5461; NSC782164), APTO-253 (NSC789042), BRACO-19 (NSC847499), peposertib (NSC802822), ceralasertib (NSC780249), elimusertib (NSC800525), camonsertib (NSC841442), AZD-1390 (NSC803789), olaparib (NSC753686), talazoparib (NSC767125), ART-558 (NSC835418), sotorasib (NSC818433), MRTX-1133 (NSC836407), SN-38 (NSC673596), topotecan (NSC609699), etoposide (NSC141540), doxorubicin (NSC123127), gemcitabine (NSC613327), 5-fluorouracil (NSC19893), paclitaxel (NSC125973), vemurafenib (NSC761431), panobinostat (NSC761190), R-306465 (JNJ-16241199; NSC773264), adavosertib (NSC754352), TP-3654 (NSC805149), carboplatin (NSC241240), KSQ-4279 (NSC840948), and staurosporine (NSC755774) were obtained from the National Cancer Institute (NCI) Developmental Therapeutics Program Chemical Repository (34). The FDA-approved anticancer drug set is available from the NCI Developmental Therapeutics Program. […] The stock solutions were prepared in dimethyl sulfoxide (DMSO, Sigma-Aldrich, St. Louis, MO, cat. D2650) at 800-fold the tested concentration and stored at -70 degrees C prior to their use. All drugs and investigational agents were tested over a range starting from a high concentration at or near the clinical Cmax and decreasing in half-log increments. If the clinical Cmax for an agent had not been determined, the highest concentration tested was 10 microM.
2.3 Cell Culture. All cells were maintained in an incubator at 37 degrees C and 5% CO2 with 95% humidity. The PDC lines were cultured according to standard operating procedures established by the NCI PDMR. All PDCs were thawed and cultured in Matrigel-coated flasks prepared with a working solution of 1X Ham's F-12 nutrient mix, without supplementation (Invitrogen, cat. 11765054), 100 U/mL penicillin-streptomycin (Invitrogen, cat. 15140122), and 2.5% Matrigel (Corning Inc., cat. 354248) for the first three passages. The 857933-349-R-J2-PDC line was cultured in 6C/Colon 1B media, which includes advanced DMEM/F-12 (Thermo Fisher Scientific, cat. 12634028), 10 mM HEPES (Thermo Fisher Scientific, cat. 15630080), 1X GlutaMAX supplement (Thermo Fisher Scientific, cat. 35050061), 0.1 mg/mL primocin (InvivoGen, cat. ant-pm-2), 10% defined fetal bovine serum, heat inactivated (HyClone Laboratories Inc., cat. SH30070.03HI), 50% L-WRN conditioned media (ATCC, cat. CRL-3276), 1.25 mM N-Acetyl-L-cysteine (Sigma-Aldrich, cat. A9165), 10 mM nicotinamide (Sigma-Aldrich, cat. N0636), 1X B-27 supplement (Thermo Fisher Scientific, cat. 17504044), 1X N-2 supplement (Thermo Fisher Scientific, cat. 17502048), 10 microM Y-27632 dihydrochloride (Tocris Bioscience, cat. 1254), and 50 ng/mL human EGF recombinant protein (Thermo Fisher Scientific, cat. PHG0311). The 485176-168-R4-J1-PDC line was cultured in Panc media, which includes all 6C/Colon 1B media components plus 100 ng/mL human FGF-10 (Thermo Fisher Scientific, cat. 100-26), 500 nM SB-431542 (Selleckchem, cat. S1067), and gastrin (Tocris, cat. 3006).
[…]

[1] = second compound 0.0316 µM, first compound 0.0316 µM
[2] = second compound 0.0316 µM, first compound 0.1 µM
[3] = second compound 0.0316 µM, first compound 0.316 µM
[4] = second compound 0.0316 µM, first compound 1 µM
[5] = second compound 0.0316 µM, first compound 3.16 µM
[6] = second compound 0.0316 µM, first compound 10 µM
[7] = second compound 0.1 µM, first compound 0.0316 µM
[8] = second compound 0.1 µM, first compound 0.1 µM
[9] = second compound 0.1 µM, first compound 0.316 µM
[10] = second compound 0.1 µM, first compound 1 µM
[11] = second compound 0.1 µM, first compound 3.16 µM
[12] = second compound 0.1 µM, first compound 10 µM
[13] = second compound 0.316 µM, first compound 0.0316 µM
[14] = second compound 0.316 µM, first compound 0.1 µM
[15] = second compound 0.316 µM, first compound 0.316 µM
[16] = second compound 0.316 µM, first compound 1 µM
[17] = second compound 0.316 µM, first compound 3.16 µM
[18] = second compound 0.316 µM, first compound 10 µM
[19] = second compound 1 µM, first compound 0.0316 µM
[20] = second compound 1 µM, first compound 0.1 µM
[21] = second compound 1 µM, first compound 0.316 µM
[22] = second compound 1 µM, first compound 1 µM
[23] = second compound 1 µM, first compound 3.16 µM
[24] = second compound 1 µM, first compound 10 µM
[25] = second compound 3.16 µM, first compound 0.0316 µM
[26] = second compound 3.16 µM, first compound 0.1 µM
[27] = second compound 3.16 µM, first compound 0.316 µM
[28] = second compound 3.16 µM, first compound 1 µM
[29] = second compound 3.16 µM, first compound 3.16 µM
[30] = second compound 3.16 µM, first compound 10 µM
[31] = second compound 10 µM, first compound 0.0316 µM
[32] = second compound 10 µM, first compound 0.1 µM
[33] = second compound 10 µM, first compound 0.316 µM
[34] = second compound 10 µM, first compound 1 µM
[35] = second compound 10 µM, first compound 3.16 µM
[36] = second compound 10 µM, first compound 10 µM
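Also: spheroids exposed to the agents for 7 days before readout.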
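For viability, T/C in this document: percent of luminescence signal in DMSO vehicle wells taken as 100% viability.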

O=C(NO)c1cnc(N2CCN(S(=O)(=O)c3ccc4ccccc4c3)CC2)nc1 + CN(C)c1ccc(Nc2c3ccc(NC(=O)CCN4CCCC4)cc3nc3cc(NC(=O)CCN4CCCC4)ccc23)cc1
393 nM: IC50 (second compound 0.1 µM)
inactive: viability, T/C [1] 96.5% | viability, T/C [2] 83.4% | viability, T/C [3] 69.9% | viability, T/C [7] 99.8% | viability, T/C [8] 85.2% | viability, T/C [9] 61.5% | viability, T/C [13] 98.3% | viability, T/C [14] 82% | viability, T/C [15] 54.6% | viability, T/C [19] 83.1% | viability, T/C [20] 87.2% | viability, T/C [21] 62.5% | viability, T/C [25] 88.2% | viability, T/C [26] 85.2% | viability, T/C [27] 62.5% | viability, T/C [31] 98.5% | viability, T/C [32] 80.9% | viability, T/C [33] 58.5%
402 nM: IC50 (second compound 3.16 µM)
406 nM: IC50 (second compound 1 µM)
365 nM: IC50 (second compound 10 µM)
445 nM: IC50 (second compound 0.0316 µM)
active: viability, T/C [4] 2.76% | viability, T/C [5] 0.18% | viability, T/C [6] 0.23% | viability, T/C [10] 5.02% | viability, T/C [11] 0.16% | viability, T/C [12] 0.17% | viability, T/C [16] 3.28% | viability, T/C [17] 0.16% | viability, T/C [18] 0.13% | viability, T/C [22] 4.71% | viability, T/C [23] 0.12% | viability, T/C [24] 0.19% | viability, T/C [28] 2.43% | viability, T/C [29] 0.12% | viability, T/C [30] 0.2% | viability, T/C [34] 5.85% | viability, T/C [35] 0.23% | viability, T/C [36] 0.19%
334 nM: IC50 (second compound 0.316 µM)

C=CCn1c(=O)c2cnc(Nc3ccc(N4CCN(C)CC4)cc3)nc2n1-c1cccc(C(C)(C)O)n1 + Cc1cnc(CNC(=O)c2c(=O)c3ccc(N4CCCN(C)CC4)nc3n3c2sc2ccccc23)cn1
inactive: viability, T/C [1] 95.4% | viability, T/C [2] 93.7% | viability, T/C [3] 88.8% | viability, T/C [4] 83.7% | viability, T/C [5] 43.2% | viability, T/C [6] 25.4% | viability, T/C [7] 104% | viability, T/C [8] 83.6% | viability, T/C [9] 91.4% | viability, T/C [10] 76% | viability, T/C [11] 43.1% | viability, T/C [12] 22.2% | viability, T/C [13] 84.6% | viability, T/C [14] 87.5% | viability, T/C [15] 73.5% | viability, T/C [16] 66.3% | viability, T/C [17] 33.8% | viability, T/C [18] 24% | viability, T/C [19] 83.2% | viability, T/C [20] 87.9% | viability, T/C [21] 72.1% | viability, T/C [22] 61.8% | viability, T/C [23] 27.3% | viability, T/C [24] 20.2% | viability, T/C [25] 73.3% | viability, T/C [26] 63.6% | viability, T/C [27] 68.3% | viability, T/C [28] 56.8% | viability, T/C [29] 25.1% | viability, T/C [30] 18.5% | viability, T/C [31] 66.2% | viability, T/C [32] 53.9% | viability, T/C [33] 61.2% | viability, T/C [34] 51.1% | viability, T/C [35] 31.2% | viability, T/C [36] 13.8%
2530 nM: IC50 (second compound 0.1 µM)
1400 nM: IC50 (second compound 1 µM)
1080 nM: IC50 (second compound 10 µM)
1280 nM: IC50 (second compound 3.16 µM)
2610 nM: IC50 (second compound 0.0316 µM)
1740 nM: IC50 (second compound 0.316 µM)

CC1COCCN1c1cc(C2(O)CC3CCC(C2)O3)c2cnn(-c3ccn[nH]3)c2n1 (stereo unspecified) + Cc1cnc(CNC(=O)c2c(=O)c3ccc(N4CCCN(C)CC4)nc3n3c2sc2ccccc23)cn1
136 nM: IC50 (second compound 10 µM)
901 nM: IC50 (second compound 0.0316 µM)
275 nM: IC50 (second compound 3.16 µM)
364 nM: IC50 (second compound 0.316 µM)
inactive: viability, T/C [1] 84.9% | viability, T/C [2] 85.1% | viability, T/C [3] 66.8% | viability, T/C [4] 47.8% | viability, T/C [5] 38.4% | viability, T/C [6] 30.4% | viability, T/C [7] 84.4% | viability, T/C [8] 77.6% | viability, T/C [9] 57.6% | viability, T/C [10] 43.8% | viability, T/C [11] 34.6% | viability, T/C [12] 33.2% | viability, T/C [13] 82.5% | viability, T/C [14] 68.7% | viability, T/C [15] 54.3% | viability, T/C [16] 34.3% | viability, T/C [17] 37.9% | viability, T/C [18] 31.3% | viability, T/C [19] 71.4% | viability, T/C [20] 68.2% | viability, T/C [21] 49.6% | viability, T/C [22] 36.5% | viability, T/C [23] 28.8% | viability, T/C [24] 26.6% | viability, T/C [25] 65.5% | viability, T/C [26] 57.8% | viability, T/C [27] 49.9% | viability, T/C [28] 34.6% | viability, T/C [29] 25.2% | viability, T/C [30] 27.3% | viability, T/C [31] 65.6% | viability, T/C [32] 50.5% | viability, T/C [33] 44.5% | viability, T/C [34] 32.8% | viability, T/C [35] 27.6% | viability, T/C [36] 21.2%
342 nM: IC50 (second compound 1 µM)
591 nM: IC50 (second compound 0.1 µM)
